Columns and labels:
[1] = system: mitochondrial ATP production on non-small cell lung carcinoma cell lines NCI-H460; assay: Mitochondrial ATP analysis (Cell Titer Glo) in NCI-H460 cells; type: cell-based; details: Homo sapiens, NCI-H460, 1 h, 1-hour incubation, with sodium iodoacetate (100 μM), concentration inhibiting 50% of mitochondrial ATP production, read-out: IC50 (mito ATP)
How it was run: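 NCI-H460 cells (1,000/well) treated 24 h after plating for 1 h with compound dose series alone or with 100 μM sodium iodoacetate; oligomycin A (10 μg/ml) and FCCP (30 μM) as controls; Cell Titer Glo luminescence. Mitochondrial ATP = ATP under iodoacetate minus ATP under iodoacetate+oligomycin; IC50 (M).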

HIF-1a = assay: Western blot model: HIF1-a stabilization in Hep3b cells under hypoxia; type: cell-based; details: hypoxia 1% O2, 6 hours; for Western Blot (range of decrease of HIF1-a stabilization): class symbol
How it was run: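 Hep3B cells were exposed to compound under hypoxia (1% O2, 37 °C, 5% CO2) for 6 hours. HIF-1a was detected by western blot of 25 μg lysate protein with β-actin as loading control and ECL read-out. Activity is given as a percentage range relative to control.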

SMILES | IC50 [1] | Western Blot (decrease of HIF1-a stabilization, percentage relative to control) (HIF-1a) | Western Blot (range of decrease of HIF1-a stabilization) (HIF-1a)
COc1ccc(C(O)C(C)Oc2ccc(-c3nsc(-c4ccc(OC(C)C(O)c5ccc(OC)c(OC)c5)cc4)n3)cc2)cc1OC (stereo not drawn) [Compound I-39, 1-(3,4-dimethoxyphenyl)-2-[4-[5-[4-[2-(3,4-dimethoxyphenyl)-2-hydroxy-1-methyl-ethoxy]phenyl]-1,2,4-thiadiazol-3-yl]phenoxy]propan-1-ol] | 92.5 nM | 51% | ** (** represents a decrease of HIF-a stabilization between 50 to 70%)
COc1ccc(C(O)C(C)(C)Oc2ccc(-c3nsc(-c4ccc(OC(C)(C)C(O)c5ccc(OC)c(OC)c5)cc4)n3)cc2)cc1OC (stereo not drawn) [Compound I-42, 1-(3,4-dimethoxyphenyl)-2-[4-[5-[4-[2-(3,4-dimethoxyphenyl)-2-hydroxy-1,1-dimethyl-ethoxy]phenyl]-1,2,4-thiadiazol-3-yl]phenoxy]-2-methyl-propan-1-ol] | 30 nM | 56% | ** (** represents a decrease of HIF-a stabilization between 50 to 70%)
COc1ccc(C(O)C(C)Oc2ccc(-c3cnc(-c4ccc(OC(C)C(O)c5ccc(OC)c(OC)c5)cc4)o3)cc2)cc1OC (stereo not drawn) [Compound I-45, 1-(3,4-dimethoxyphenyl)-2-[4-[2-[4-[2-(3,4-dimethoxyphenyl)-2-hydroxy-1-methyl-ethoxy]phenyl]oxazol-5-yl]phenoxy]propan-1-ol] | 426 nM | 87% | *** (*** represents a decrease of HIF-a stabilization higher than 70%)
COc1ccc(C(O)C(C)(C)Oc2ccc(-c3cn(C)c(-c4ccc(OC(C)(C)C(O)c5ccc(OC)c(OC)c5)cc4)n3)cc2)cc1OC (stereo not drawn) [Compound I-57, 1-(3,4-dimethoxyphenyl)-2-[4-[2-[4-[2-(3,4-dimethoxyphenyl)-2-hydroxy-1,1-dimethyl-ethoxy]phenyl]-1-methyl-imidazol-4-yl]phenoxy]-2-methyl-propan-1-ol] | 51.9 nM | 18% | − (− represents a decrease of HIF1-a stabilization is less than 30%)
COc1ccc(C(O)COc2ccc(-c3cn(C)c(-c4ccc(OCC(O)c5ccc(OC)c(OC)c5)cc4)n3)cc2)cc1OC (stereo not drawn) [Compound I-58, 1-(3,4-dimethoxyphenyl)-2-[4-[2-[4-[2-(3,4-dimethoxyphenyl)-2-hydroxy-ethoxy]phenyl]-1-methyl-imidazol-4-yl]phenoxy]ethanol] | 458 nM | 56% | ** (** represents a decrease of HIF-a stabilization between 50 to 70%)
COc1ccc(C(O)COc2ccc(-c3csc(-c4ccc(OC(C)(C)C(O)c5ccc(OC)c(OC)c5)cc4)n3)cc2)cc1OC (stereo not drawn) [Compound I-63, 1-(3,4-dimethoxyphenyl)-2-[4-[4-[4-[2-(3,4-dimethoxyphenyl)-2-hydroxy-ethoxy]phenyl]thiazol-2-yl]phenoxy]-2-methyl-propan-1-ol] | 42.9 nM | 64% | ** (** represents a decrease of HIF-a stabilization between 50 to 70%)
COc1ccc(C(O)COc2ccc(-c3nc(-c4ccc(OC(C)(C)C(O)c5ccc(OC)c(OC)c5)cc4)cs3)cc2)cc1OC (stereo not drawn) [Compound I-64, 1-(3,4-dimethoxyphenyl)-2-[4-[2-[4-[2-(3,4-dimethoxyphenyl)-2-hydroxy-ethoxy]phenyl]thiazol-4-yl]phenoxy]-2-methyl-propan-1-ol] | 180 nM | 58% | ** (** represents a decrease of HIF-a stabilization between 50 to 70%)

Source: patent US20170313674A1, “BENZYLHYDROXIDE DERIVATIVES, PREPARATION THEREOF AND THERAPEUTIC USE THEREOF” (SANOFI, priority 2014, published 2017)
